According to patent publication US20200268832A1, “COMPOSITIONS FOR DELIVERY TO AND TREATMENT OF ATHEROSCLEROTIC PLAQUES” (Sanford Burnham Prebys Medical Discovery Institute, priority 2015, published 2020):
“Also recorded” adds a separate entry of the source.

Legend:
p32 protein [1] = biological target: T1, p32 protein (Homo sapiens, UniProt Q07021); assay: Fluorescence polarization assay: displacement of FAM-TT1 from p32 (HTS, dose response, unlabeled peptide competition); format: binding
T1 construct: 6xHis; host or cells: Rosetta-gami-2 cells (Novagen); an E. coli strain by own knowledge
T1 sequence (Q07021 74-282): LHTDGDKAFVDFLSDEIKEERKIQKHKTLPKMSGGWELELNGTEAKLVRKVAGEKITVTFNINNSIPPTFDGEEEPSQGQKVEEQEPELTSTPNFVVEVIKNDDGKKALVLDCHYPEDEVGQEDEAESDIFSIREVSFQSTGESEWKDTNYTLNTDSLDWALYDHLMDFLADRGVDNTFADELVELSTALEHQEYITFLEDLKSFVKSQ
Experimental: Fluorescence polarization (FP)-based assay was used for solution-based screening of compound libraries for p32 binding compounds. […] In FP assay, peptide conjugated with a fluorescent label (fluorescein-AM, FAM) is excited with polarized light. […] 6×-His-Tagged p^32 was expressed in Rosetta-gami-2 cells (Novagen). The protein was purified by IMAC using HIS-select resin (Sigma) with an imidizole gradient from 20-300 mM and eluted fractions were analyzed on analytical SDS-PAGE. […] Fluorescence polarization is given as milli-polarization (mP) value, which is obtained from equation (1):
mP=1000*(S−P)/(S+P), (Eq. 1)
The assay was initially set up in 20 μl well volume in 384 well plate (Corning Life Sciences), and measurements were carried out using PheraStar FS plate reader (BMG LABTECH, Ortenberg, Germany) in quadruplicate. Peptide and protein stock solutions were diluted to desired concentration with assay buffer (50 mM BIS-TRIS pH 7.4, 0.05% Tween20, 1 mM DTT). FAM-labeled peptides were protected from light during the experiment to avoid photobleaching. Optimal concentration of fluorescein (FAM) labeled-peptides for the assay was determined by measuring the limit of detection (LOD), signal-to-background ratio (S/B), and stability of mP value over series of peptide concentrations. In the binding assay, the concentration of FAM-peptide was kept constant, and the FP was measured over the range of target protein concentrations. The peptide dissociation constant (KD) was obtained by fitting the binding curve into Michaelis-Menten kinetics in GraphPad Prism-software (GraphPad Software, Inc., CA, USA).
FAM-TT-1 and p32 solutions are prepared just before experiment, and stored on ice during the screen; the peptide is shielded from light. • 1. […] Dispense 1.5 μL of assay buffer (50 mM BIS-TRIS pH 7.4, 0.05% Tween 20, 1 mM DTT) into columns 1-4 • 3. […] Dispense 37.5 nL of compounds (2 mM) into columns 5-44 • 5. Spin plate • 6. Incubate 20 min • 7. Dispense 1.5 μL FAM-TT-1 peptide (20 nM) into all columns • 8. Shake plate and spin plate • 9. Incubate 25 min • 10. Read plate on PheraStar FS
Chemical library of ˜50,000 compounds from ChemBridge (San Diego, Calif.) was screened in High-Throughput Screening Facility at Conrad Prebys Center for Chemical Genomics (Sanford-Burnham Medical Research Institute, La Jolla, Calif.). […] Peptide and protein were diluted immediately prior to screening, kept on ice during screening, and FAM-peptide was protected from light throughout the experiment. […]

p32 protein [2] = biological target: T1, p32 protein; assay: TT1 phage binding inhibition assay (ELISA-type); conditions: 100 μM compound
Experimental: The binding of individual phage to p32 was verified using ELISA-type of phage binding assay. 96-well plates (Corning Life Sciences, Tewksbury, Mass., USA) were coated with 100 μL of 5 μg/mL p32 in PBS at 4° C. overnight, washed 3 times with 200 μL of PBST (PBS+0.05% Tween-20), blocked with 200 μL of 0.5% bovine serum albumin (BSA) in PBST for 1 h at 37° C., and washed 3 times with PBST. Phages (1.11*10^8 pfu in 100 μL PBST) were added to p32-coated/BSA-blocked wells, the plate was incubated at 4° C. overnight, and washed 3 times with PBST. Subsequently, the plates were incubated with 100 μL in-house prepared polyclonal rabbit anti-T7 antibody diluted 1:1000 in PBST for 1 h at 4° C., and washed 3 times with washing buffer. Horseradish peroxidase (HRP)-labeled anti-rabbit IgG (Sigma-Aldrich) was diluted 1:1000 in PBS, and 100 μL was added to the wells, followed by 1 h incubation at 4° C. and washing 3 times. Next, 100 μL of OPD silver and gold substrate (Sigma-Aldrich) was added to the wells and incubated at room temperature until visible color was observed (<30 min). The reaction was stopped by adding 50 μL of 1M H2SO4, and the plate was read at 492 nm (Varioskan Flash, Thermo Scientific, Waltham, Mass., USA).
The ability to inhibit TT1-phage binding to p32 protein was used as a secondary assay to verify the hit compounds. The competition assay was based on the phage binding assay described above with minor modifications. ELISA plates were coated with 2.5 μg/mL p32, incubated with phages (1.11*10^8 pfu in 100 μL PBST) and 100 μM hit compounds at 4° C. overnight, and followed by antibody incubation and chromogenic reaction. Negative controls included DMSO at concentration it was used to dissolve the hit compounds.

p32 protein [3] = biological target: T1, p32 protein; assay: NMR 1D 1H-aliph spectra of p32 with compounds; format: binding; conditions: 5 μM p32; compounds 100 and 500 μM; TT1 70 μM
Experimental: FIGS. 3A and 3B are graphs showing NMR based evaluation of binding of compounds 4014008 and 7933989 to P32 protein. The ID ^1H-aliph spectra of 5 μM P32 in the absence (bottom) and presence of compounds #4014008 (A) and #7933989 (B) at 100 μM (second from bottom) and 500 μM (second from top) were collected. As a control, the spectrum of p32 in the presence of the known peptide binder, TT1 at 70 μM, was also collected (top).
All the NMR experiments were carried out on a Bruker Avance 700 spectrometer equipped with a TCI cryoprobe at T=293 K. For structure determinations, the peptide concentration was 100 μM in the NMR buffer in presence of 150 μM of ZnCl2. One-dimensional (1D) 1H spectra were acquired with a spectral width of 8417.51 Hz, relaxation delay 1.0 s, 8 k data points for acquisition and 16 k for transformation.

- inhibition at 25 µM (p32 protein [1]; high-throughput screen hits, inhibition of TT1-p32 interaction, library compounds 25 μM (Table 1), b410 says 100 μM): 29.9%
- inhibition at 100 µM (p32 protein [1]; highest concentration used, 100 μM, read-out: inhibition of FAM-TT1 binding to p32 in FP assay): 75%
- inhibition at 100 µM (p32 protein [2]): 50%
Compound: Cc1cnccc1NCCN [Compound 4014008, N-(3-methylpyridin-4-yl)ethane-1,2-diamine]
- perturbations in 1D 1H-aliphatic spectra of p32 (p32 protein [3]): caused similar perturbations; also recorded: shift in the peak at around −0.3 ppm
